This note sets out measurements from ChEMBL document CHEMBL1141818, “Annonaceous acetogenins: recent progress” (J Nat Prod, 1999).

In data set [1] the test system is MIA PaCa-2. The data set can be described thus: Cytotoxicity against human MIA PaCa2 cells. In kind it is functional. The note with it: for EC50: Homo sapiens, MIA PaCa-2, read-out: ED50 (the source's name).
In data set [2] the test system is HT-29. The data set can be described thus: Cytotoxicity against human HT-29 cells. In kind it is functional. The note with it: for EC50: Homo sapiens, HT-29, read-out: ED50 (the source's name).
Data set [3] has as its system A498. The data set can be described thus: Cytotoxicity against human A-498 cells. In kind it is functional. Particulars: Homo sapiens, A498; read-out: ED50 (the source's name).
Data set [4] has as its system MCF7. The experiment in a line: Cytotoxicity against human MCF7 cells. In kind it is functional. Particulars: for EC50: Homo sapiens, MCF7, read-out: ED50 (the source's name).
The test system of data set [5] is A549. The data set can be described thus: Cytotoxicity against human A549 cells. In kind it is functional. Particulars: for EC50: Homo sapiens, A549, read-out: ED50 (the source's name).
A short description of data set [6]: Toxicity in brine shrimp. The note with it: artemia, in vivo. In kind it is organism-based.
In data set [7] the test system is PC-3. The data set can be described thus: Cytotoxicity against human PC-3 cells. In kind it is functional. The note with it: for EC50: Homo sapiens, PC-3, read-out: ED50 (the source's name).

Molecules are shown by their SMILES. ≈ marks a conversion by molar mass, not a printed value.

By LC50 is commonly meant the concentration lethal to half of the exposed cells or organisms. Take `CCCCCCCCCC[C@@H](O)[C@H]1CC[C@H]([C@H]2CC[C@H]([C@H](O)CCCC[C@H](O)CCCCC[C@@H](O)CC3=C[C@H](C)OC3=O)O2)O1`: the EC50 is more than 1 µg/mL in data set [1]; 0.76 µg/mL (≈ 1.19 µM) in data set [2]; more than 1 µg/mL in data set [3]; 0.33 µg/mL (≈ 0.516 µM) in data set [4]; 0.67 µg/mL (≈ 1.05 µM) in data set [5]; 0.53 µg/mL (≈ 0.83 µM) in data set [7]. In data set [6], this compound came in with an LC50 of 0.43 µg/mL (≈ 0.673 µM).
With `CCCCCCCCCC[C@@H](O)[C@H]1CC[C@H]([C@H]2CC[C@H]([C@H](O)CCCCC[C@@H](O)CCCCC3CC(CC(C)=O)C(=O)O3)O2)O1` (some centres not stated), the ED50 in data set [1] was 1.7 ×10⁻⁴ ug/ml. For the same compound, the EC50 in data set [2] amounted to 1.4 µg/mL (≈ 2.19 µM); in data set [3] it was 0.036 µg/mL (≈ 0.0563 µM); in data set [4], 0.0012 µg/mL (≈ 0.00188 µM); in data set [5], 0.077 µg/mL (≈ 0.121 µM); in data set [7] it was 0.16 µg/mL (≈ 0.25 µM). The same compound yielded an LC50 in data set [6] of 0.35 µg/mL (≈ 0.548 µM).
Take `CCCCCCCCCCCC[C@@H](O)[C@H]1CC[C@H]([C@H](O)CCCC(O)C(O)CCCCC[C@@H]2CC(CC(C)=O)C(=O)O2)O1` (some centres not stated): the EC50 in data set [1] is less than 0.01 µg/mL; in data set [2] it was less than 0.01 µg/mL; in data set [3] it was 0.12 µg/mL (≈ 0.196 µM); in data set [4] it was 0.61 µg/mL (≈ 0.995 µM); in data set [5], less than 0.01 µg/mL; in data set [7] it was 1.3 µg/mL (≈ 2.12 µM). The compound further returned a median lethal concentration (LC50) in data set [6] of 4.8 µg/mL (≈ 7.83 µM).
For `CCCCCCCCCCCC[C@@H](O)[C@H]1CC[C@H]([C@H](O)CCCCCC(O)CCCCCCC2=C[C@H](C)OC2=O)O1` (some centres not stated), the EC50 was determined as 2.9 µg/mL (≈ 4.99 µM) in data set [1]; 1.7 µg/mL (≈ 2.93 µM) in data set [2]; 2.2 µg/mL (≈ 3.79 µM) in data set [3]; 2.2 µg/mL (≈ 3.79 µM) in data set [4]; 3.9 µg/mL (≈ 6.71 µM) in data set [5]; 2.7 µg/mL (≈ 4.65 µM) in data set [7]. The LC50 in data set [6] worked out at 8.9 µg/mL (≈ 15.3 µM).
With `CCCCCCCCCC[C@@H](O)[C@H]1CC[C@H]([C@H](O)CC[C@H](O)[C@@H]2CC[C@@H](CCCCC[C@@H]3CC(CC(C)=O)C(=O)O3)O2)O1` (some centres not stated), the EC50 in data set [1] is more than 1 µg/mL; in data set [2] it was more than 1 µg/mL; in data set [3], 0.21 µg/mL (≈ 0.344 µM); in data set [4] it was more than 1 µg/mL; in data set [5] it was 0.21 µg/mL (≈ 0.344 µM); in data set [7] it was 0.0011 µg/mL (≈ 0.0018 µM). In data set [6], this compound yielded a 50% lethal concentration (LC50) of 3.3 µg/mL (≈ 5.4 µM).
Consider `CCCCCCCCCC/C=C\CC[C@@H](O)[C@H]1CC[C@H]([C@H](O)CCCCCC(=O)CCCC[C@@H]2CC(CC(C)=O)C(=O)O2)O1` (some centres not stated), for which the EC50 was 0.22 µg/mL (≈ 0.354 µM) in data set [1]; more than 1 µg/mL in data set [2]; more than 1 µg/mL in data set [3]; more than 1 µg/mL in data set [4]; more than 1 µg/mL in data set [5]; 0.032 µg/mL (≈ 0.0515 µM) in data set [7]. In data set [6], this compound returned an LC50 of 0.44 µg/mL (≈ 0.709 µM).
On to `CCCCCCCCCCCC[C@@H](O)[C@H]1CC[C@H]([C@H](O)CCCCCC[C@H](O)CCCCCCCC2=C[C@H](C)OC2=O)O1`, for which the ED50 was found to be 1 ×10⁻⁵ ug/ml in data set [1], 5.8 ×10⁻⁷ ug/ml in data set [4] and 6.5 ×10⁻⁷ ug/ml in data set [5]. The values for the EC50 in data set [2], in data set [3] and in data set [7] were 0.14 µg/mL (≈ 0.23 µM), 0.15 µg/mL (≈ 0.246 µM) and 0.17 µg/mL (≈ 0.279 µM), respectively. Moreover, the LC50 in data set [6] came to 0.13 µg/mL (≈ 0.213 µM).
`CCCCCCCCCCCC[C@H](O)[C@@H]1CC[C@H]([C@H](O)CCCCCC(O)CCCCCCC2=C[C@H](C)OC2=O)O1` (some centres not stated): the EC50 was 1.1 µg/mL (≈ 1.89 µM) in data set [1]; 1.4 µg/mL (≈ 2.41 µM) in data set [2]; 1.8 µg/mL (≈ 3.1 µM) in data set [3]; 1.7 µg/mL (≈ 2.93 µM) in data set [4]; 2 µg/mL (≈ 3.44 µM) in data set [5]; 2.1 µg/mL (≈ 3.62 µM) in data set [7]. Also, the LC50 in data set [6] was 6.8 µg/mL (≈ 11.7 µM).
Turning to `CCCCCCCCCC[C@@H](O)[C@H]1CC[C@@H]([C@H]2CC[C@H]([C@H](O)CCCC[C@H](O)CCCCC[C@@H](O)CC3=C[C@H](C)OC3=O)O2)O1`, the EC50 came out at 0.2 µg/mL (≈ 0.313 µM) in data set [1], 0.14 µg/mL (≈ 0.219 µM) in data set [2], 0.01 µg/mL (≈ 0.0157 µM) in data set [3] and 0.38 µg/mL (≈ 0.595 µM) in data set [7]. In addition, the ED50 in data set [4] worked out at 1.9 ×10⁻⁸ ug/ml; in data set [5] it was 1 ×10⁻⁸ ug/ml.
Consider `CCCCCCCCCCCCCC[C@@H](O)[C@H]1CC[C@H]([C@H](O)CCCC[C@H](O)CCCCC[C@@H]2CC(CC(C)=O)C(=O)O2)O1` (mixture of isomers), for which the EC50 in data set [1] turned out to be 0.074 µg/mL; in data set [3] it was 0.12 µg/mL; in data set [5], 0.014 µg/mL; in data set [7], 0.057 µg/mL. Moreover, the ED50 amounted to 7.4 ×10⁻⁴ ug/ml in data set [2] and 7.6 ×10⁻⁴ ug/ml in data set [4]. This compound also came in with a 50% lethal concentration (LC50) in data set [6] of 0.04 µg/mL.
As to `CCCCCCCCCCCCCC/C=C\[C@@H](O)C[C@H](O)[C@@H]1CC[C@@H](CCCCC[C@@H](O)CC2=C[C@H](C)OC2=O)O1` [GONIOTRIONIN], the EC50 in data set [1] stood at 0.0054 µg/mL (≈ 0.00933 µM); in data set [2], 0.34 µg/mL (≈ 0.587 µM); in data set [3], 0.002 µg/mL (≈ 0.00345 µM); in data set [5], 0.0077 µg/mL (≈ 0.0133 µM); in data set [7], 0.36 µg/mL (≈ 0.622 µM). Also, in data set [4], the ED50 is listed as 5.3 ×10⁻⁶ ug/ml.
In data set [1], `CCCCCCCCCCCC[C@H](O)[C@H]1CC[C@H]([C@H](O)CCCCCC(=O)CCCC[C@@H](O)CC2=C[C@H](C)OC2=O)O1` [MOSIN B] returned an ED50 of 1.2 ×10⁻⁴ ug/ml. Also, the EC50 is more than 1 µg/mL in data set [2]; more than 1 µg/mL in data set [3]; more than 1 µg/mL in data set [4]; 0.94 µg/mL (≈ 1.58 µM) in data set [5]; more than 1 µg/mL in data set [7].
Consider `CCCCCCCCCCCC[C@H](O)[C@@H]1CC[C@H]([C@H](O)CCCCCC(=O)CCCC[C@@H](O)CC2=C[C@H](C)OC2=O)O1` [MOSIN C], for which the ED50 in data set [1] is on record as 1.2 ×10⁻⁴ ug/ml. In addition, the EC50 in data set [2] is more than 1 µg/mL; in data set [3] it was more than 1 µg/mL; in data set [4], more than 1 µg/mL; in data set [5], 0.6 µg/mL (≈ 1.01 µM); in data set [7], more than 1 µg/mL.
As for `CCCCCCCCCCCC[C@@H](O)[C@H]1CC[C@H]([C@H]2CCC[C@@H]([C@@H](O)CCCCCCC[C@@H](O)CC3=C[C@H](C)OC3=O)O2)O1` [MUCONIN], the ED50 in data set [1] stood at 5.4 ×10⁻⁴ ug/ml; in data set [4], 2.4 ×10⁻⁴ ug/ml. In addition, the EC50 in data set [2] came out at 0.39 µg/mL (≈ 0.626 µM); in data set [3] it was 0.18 µg/mL (≈ 0.289 µM); in data set [5] it was 0.0045 µg/mL (≈ 0.00722 µM); in data set [7], 0.58 µg/mL (≈ 0.931 µM).
With `CCCCCCCCCCCCCCCCC[C@@H](O)[C@H]1C[C@H](O)[C@H]([C@H]2CC[C@H]([C@H](O)CCCCCC3=C[C@H](C)OC3=O)O2)O1` [MUCOXIN], the EC50 turned out to be 0.33 µg/mL (≈ 0.53 µM) in data set [1]; 0.61 µg/mL (≈ 0.979 µM) in data set [2]; 0.84 µg/mL (≈ 1.35 µM) in data set [3]; 0.0037 µg/mL (≈ 0.00594 µM) in data set [4]; 0.036 µg/mL (≈ 0.0578 µM) in data set [5]; 0.31 µg/mL (≈ 0.498 µM) in data set [7].
Take `CCCCCCCCCCCC[C@@H](O)[C@H]1CC[C@@H]([C@@H]2CC[C@@H](CCCCCCC[C@@H](O)CC3=C[C@H](C)OC3=O)O2)O1` [ROLLIDECIN C]: the EC50 came out at 0.11 µg/mL (≈ 0.19 µM) in data set [1]; 0.063 µg/mL (≈ 0.109 µM) in data set [2]; 1.4 µg/mL (≈ 2.42 µM) in data set [3]; 1.1 µg/mL (≈ 1.9 µM) in data set [4]; 1.3 µg/mL (≈ 2.25 µM) in data set [5]; 0.29 µg/mL (≈ 0.501 µM) in data set [7].
For `CCCCCCCCCCCC[C@@H](O)[C@H]1CC[C@@H]([C@@H]2CC[C@@H](CCCCCCCCC[C@@H](O)CC3=C[C@H](C)OC3=O)O2)O1` [ROLLIDECIN D], the EC50 in data set [1] came to 1 µg/mL (≈ 1.65 µM); in data set [2], 5.4 µg/mL (≈ 8.9 µM); in data set [3] it was 4 µg/mL (≈ 6.59 µM); in data set [4], 5 µg/mL (≈ 8.24 µM); in data set [5] it was 5.9 µg/mL (≈ 9.72 µM); in data set [7], 1.9 µg/mL (≈ 3.13 µM).
The compound `CCCCCCCCCCCC[C@H](O)[C@H]1CC[C@H]([C@H]2CC[C@H]([C@H](O)CCCCCCCC[C@@H](O)CC3=C[C@H](C)OC3=O)O2)O1` [SQUAMOTACIN] had an ED50 in data set [7] of 1 ×10⁻⁸ ug/ml.
